Measurements: PubChem BioAssay AID504556 (Southern Research Specialized Biocontainment Screening …, 2011)
pIC50: −log10 of the molar value. Active and inactive are the calls of the source. How the calls were made is not given here. Residues, ends and D or L forms follow the SMILES beside them. *: point of attachment. Cbz = O=C(OCc1ccccc1)*

How the values were obtained:
[1] = system: Mycobacterium tuberculosis H37Rv growth in 7H9 medium; assay: growth inhibition of Mycobacterium tuberculosis, dose response, 7H9 medium, purified and synthesized compounds, set 2 (AID 504556); conditions: for IC90: measured here: M. tuberculosis growth IC90
[2] = as above; conditions: Mycobacterium tuberculosis H37Rv growth in 7H9 medium; at 25 µM (top of the series)

Structure (SMILES) | pIC50 [1] | IC90 [1] | growth inhibition [2]
S=c1nc[nH]c2nc[nH]c12 | 6.02 | 1570 nM | –
O=C(NCC(c1cccs1)N1CCOCC1)c1cc([N+](=O)[O-])cc([N+](=O)[O-])c1 (stereo not given) | 7.05 | 190 nM | –
c1ccc(/N=C2\N=C(Nc3ccccn3)c3ccccc32)nc1 | > 8.00 | < 10 nM | –
CC(C)NC(=O)c1sc(=S)n2c1[nH]c(=O)c1ccc(C(=O)NCCc3ccc(Cl)cc3)cc12 | 7.10 | 230 nM | –
Cc1nc(SCC(=O)NC2CCCCC2)[nH]c(=O)c1C | 7.40 | 1030 nM | –
Cc1ccc2ccc3ccc(C)nc3c2n1 | 7.30 | 230 nM | –
O=C(CSc1nc2ccccc2c(=O)[nH]1)NC1CCCCC1 | > 8.00 | < 10 nM | –
CCOC(=O)COn1c2c(c3c4no[n+]([O-])c4ccc31)CCCC2 | 5.76 | 3680 nM | –
CCOC(=O)C(C)Sc1ncnc2c1nnn2-c1ccc(F)cc1 (stereo not given) | 7.15 | 3420 nM | –
Cc1ccc(NC(=O)C2C3/C=C\CCCCC32)cc1C (stereo not given) | 5.83 | 4010 nM | –
Cc1cccc(-c2oc3ccc(-c4ccc5c(c4)OCO5)cc3c2C#Cc2cncn2C)c1 | 5.63 | 3220 nM | –
CNc1nc(SCc2ccccc2Cl)nc2c1CCCC2 | 6.17 | 1910 nM | –
COC(=O)C(C)Oc1ccc(-c2nccc(-c3ccccn3)n2)cc1 (stereo not given) | 5.93 | 2590 nM | –
Oc1ccccc1/C=N/Nc1ccnc(SCc2ccccc2)n1 | – | – | 19.3% (inactive)
COC(=O)C(Nc1nc(SCC(=O)NC2CCCCC2)nc2ccccc12)c1ccccc1 (stereo not given) | – | – | 2.12% (inactive)
CCOC1OC(=O)C(Cl)=C1Nc1ccccc1C (stereo not given) | 5.69 | 9040 nM | –
CCc1ccc(/C=C2/C(=O)N(C)C(=S)N2CC(=O)OC)s1 | 6.72 | 3110 nM | –
Cc1cccc(/C=C/C(=O)c2ccc([N+](=O)[O-])o2)c1 | > 8.00 | < 10 nM | –
CC1CCN(C(=O)C2CCN(c3nnc(-n4cccc4)s3)CC2)CC1 | 6.05 | 2230 nM | –
O=C(/C=C\c1cccs1)N1CCN(Cc2ccc3c(c2)OCO3)CC1 | 6.48 | 1970 nM | –

Structure (SMILES) | pIC50 [1] | IC90 [1] | growth inhibition [2]
CCOC(=O)c1ccc(NC(=O)Cn2ncc(Cl)c(Cl)c2=O)cc1 | 7.15 | 480 nM | –
Nc1c(C(=O)NC2CCCCC2)nsc1C(=O)OCC(=O)NC1CCCCC1 | 6.42 | 2090 nM | –
O=C(/C=C/c1ccccc1)N1CCN(CCN2C(=O)c3cccc4cccc(c34)C2=O)CC1 | 5.89 | 3470 nM | –
COC(=O)C1CC(=O)N(c2ccc(OCc3ccccc3Cl)cc2)C1 (stereo not given) | 6.66 | 3840 nM | –
O=C1C(Br)=Cc2cccc3cccc1c23 | 7.70 | 1080 nM | –
Cc1nn2c(NCc3ccccn3)cc(C(C)C)nc2c1-c1ccccc1 | 6.29 | 820 nM | –
CC[N+](C)(CC)CCCCOc1ccc2c(c1)C(=O)c1cc(OCCCC[N+](C)(CC)CC)ccc1-2 | 6.11 | 1220 nM | –
COC(=O)CCc1nc2c(C#N)c(-c3ccc(Cl)cc3)ccn2n1 | 5.95 | 2460 nM | –
Cc1cc(Br)ccc1NC(=O)c1cnc(N2CCN(c3ccccn3)CC2)c2ccccc12 | 6.74 | 1470 nM | –
COC(=O)c1ccc(CNc2c(N3CCCC3)c(=O)c2=O)cc1 | – | – | 0.86% (inactive)
COc1cc(NC(=O)C/C(C)=N/NC(=O)c2ccccn2)c(OC)cc1Cl | 6.00 | 3040 nM | –
Cc1ccc2c(c1)c(C1=c3ccccc3=NC1=O)c(O)n2C | 6.60 | 1720 nM | –
O=C(CSc1nc2ccccc2c(=O)[nH]1)NCc1ccc(Cl)cc1 | 6.80 | 720 nM | –
CCOC(=O)CNC(=O)[C@H](Cc1ccccc1)NC(=O)OCc1ccccc1 (Cbz-Phe-Gly-OEt) | 6.21 | 1220 nM | –
CCOC(=O)COc1ccc(/C=C2\NC(=S)N(CC)C2=O)cc1 | 6.09 | 6190 nM | –
COC(=O)c1cc(=O)n(-c2ccc(F)cc2)c(=Nc2ccc(F)cc2)s1 | 6.82 | 1460 nM | –
CC(=NCc1ccc2c(c1)OCO2)C1=C(O)c2ccccc2C1=O | 6.40 | 6040 nM | –
CCC(C)Nc1ccc(NC(C)CC)cc1 (stereo not given) | 6.49 | 590 nM | –
Cc1ccc(C(=O)N/N=C(/CC(=O)c2cccs2)C(F)(F)F)cc1 | 6.27 | 1050 nM | –
